Patent US5807754A, “Combinatorial synthesis and high-throughput screening of a Rev-inhibiting arylidenediamide array” (Arqule, Inc., priority 1995, dated 1998)

target: Rev-RRE complexes (recombinant Rev protein, synthetic 32P-labelled RRE RNA) (Human immunodeficiency virus type 1 group M subtype B, UniProt P04618); test: Rev-RRE binding inhibition, nitrocellulose filter binding assay with scintillation counting; parameters: species or system Human Immunodeficiency Virus (HIV); conditions: array assayed at 6 ug/mL, non-specific competitor RNA
Sequence (P04618 whole entry, looked up, one chain of several): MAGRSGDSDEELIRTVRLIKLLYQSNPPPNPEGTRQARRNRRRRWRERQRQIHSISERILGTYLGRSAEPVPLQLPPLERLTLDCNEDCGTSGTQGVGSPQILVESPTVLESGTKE
Description: The array was assayed in parallel at 6 ug/mL in reaction mixtures containing recombinant Rev protein, synthetic 32P-labelled RRE RNA, and a non-specific competitor RNA. The reaction is then filtered through nitrocellulose filters and washed with a low salt binding buffer. Rev-RRE complexes are retained in the filter while the unbound RRE filters through. Rev-RRE complexes retained in the filter are then quantified by scintillation counting. The percentage of inhibition is calculated according to the formula: […]
where CPM1 is the activity obtained in the presence of the drug and CPM0 is the average activity in the absence of the drug. […] Raising the criterion of interest to 90% inhibition of complex formation afforded a set of 55 compounds which were examined for common functionality. These 55 compounds and their inhibition values are listed in the following table, where A, B, and C are the structural diversity elements of the scaffold: […]

| Compound | % inh |
| --- | --- |
| O=C(NC(c1ccccc1)c1ccccc1)/C(=C/c1cccc(C(F)(F)F)c1)NC(=O)c1ccc2ccccc2c1 | 93% |

same assay, conditions: array assayed at 6 ug/mL, non-specific competitor RNA, listed as 2-napbthyl / α,α,α-trifluoro-m-toluyl / 1,2,3,4-tetrahydronaphth-1-yl

| Compound | % inh |
| --- | --- |
| O=C(NC1CCCc2ccccc21)/C(=C/c1cccc(C(F)(F)F)c1)NC(=O)c1ccc2ccccc2c1 (stereo not shown) | 90% |

same assay, conditions: array assayed at 6 ug/mL, non-specific competitor RNA, read-out: % inh

| Compound | inhibition at 6 µg/mL |
| --- | --- |
| O=C(NCC(c1ccccc1)c1ccccc1)/C(=C/c1cccc(C(F)(F)F)c1)NC(=O)c1ccc(Cl)cc1Cl | 93% |
| O=C(NC1CCCCC1)/C(=C/c1ccccc1)NC(=O)c1ccc(Cl)cc1Cl [2,4-dichlorophenyl / phenyl / cyclohexyl] | 98% |
| O=C(NC1CCCc2ccccc21)/C(=C/c1ccc(OC(F)(F)F)cc1)NC(=O)c1ccc2ccccc2c1 (stereo not shown) | 94% |
| Cc1ccc(CCNC(=O)/C(=C/c2ccc(-c3ccccc3)cc2)NC(=O)c2ccc(Cl)cc2Cl)cc1 | 94% |
| O=C(NC1CCc2ccccc21)/C(=C/c1ccc(C(F)(F)F)cc1)NC(=O)c1ccc2ccccc2c1 (stereo not shown) | 92% |
| O=C(NCc1cccc2ccccc12)/C(=C/c1cccc(C(F)(F)F)c1)NC(=O)c1ccc2ccccc2c1 | 94% |
| Cc1ccc(CCNC(=O)/C(=C/c2cccc(C(F)(F)F)c2)NC(=O)c2ccc3ccccc3c2)cc1 | 96% |
| Cc1ccc(C(=O)N/C(=C\c2ccc(F)cc2F)C(=O)NCC(O)c2ccccc2)cc1 (stereo not shown) | 96% |
| CC(C)CC(CO)NC(=O)/C(=C/c1cccc(C(F)(F)F)c1)NC(=O)c1ccc2ccccc2c1 (stereo not shown) | 94% |
| O=C(N/C(=C\c1ccc(C(F)(F)F)cc1)C(=O)N1CCC(Cc2ccccc2)CC1)c1ccc2ccccc2c1 | 91% |
| O=C(NCC(c1ccccc1)c1ccccc1)/C(=C/c1cccc(C(F)(F)F)c1)NC(=O)c1ccc2ccccc2c1 | 93% |
| O=C(NC(c1ccccc1)c1ccccc1)/C(=C/c1cccc(Cl)c1)NC(=O)c1ccc2ccccc2c1 | 92% |
| O=C(NC(c1ccccc1)c1ccccc1)/C(=C/c1ccc(-c2ccccc2)cc1)NC(=O)c1ccc(Cl)cc1Cl | 96% |
| O=C(NC1CCc2ccccc21)/C(=C/c1cccc(C(F)(F)F)c1)NC(=O)c1ccc2ccccc2c1 (stereo not shown) | 92% |
| O=C(NCC(O)c1ccccc1)/C(=C/c1ccc(Cl)cc1Cl)NC(=O)c1ccc2ccccc2c1 (stereo not shown) | 95% |
| CCC(CC)NC(=O)/C(=C/c1cccc(C(F)(F)F)c1)NC(=O)c1ccc2ccccc2c1 | 93% |
| O=C(NC1CCCc2ccccc21)/C(=C/c1ccc(Cl)cc1)NC(=O)c1ccc(C(F)(F)F)cc1 (stereo not shown) | 92% |
| COc1cccc(/C=C(\NC(=O)c2ccc3ccccc3c2)C(=O)NC(c2ccccc2)c2ccccc2)c1 [2-naphthyl / m-anisyl / diphenylmethyl] | 94% |
| O=C(NC1CCCc2ccccc21)/C(=C/c1ccc(-c2ccccc2)cc1)NC(=O)c1ccc(Cl)cc1Cl (stereo not shown) | 92% |
| O=C(NCCc1ccccc1)/C(=C/c1ccc(-c2ccccc2)cc1)NC(=O)c1ccc(Cl)cc1Cl | 91% |
| O=C(NCCCc1ccccc1)/C(=C/c1ccc(C(F)(F)F)cc1)NC(=O)c1ccc2ccccc2c1 | 91% |
| O=C(NC1CCCc2ccccc21)/C(=C/c1cccc(Oc2ccccc2)c1)NC(=O)c1ccc(C(F)(F)F)cc1 (stereo not shown) | 90% |
| O=C(N/C(=C\c1ccc(C(F)(F)F)cc1)C(=O)N1CCN(c2cccc(C(F)(F)F)c2)CC1)c1ccc(Cl)cc1Cl | 90% |
| O=C(NCC(c1ccccc1)c1ccccc1)/C(=C/c1cc(F)cc(F)c1)NC(=O)c1ccc(Cl)cc1Cl | 94% |
| O=C(NC1CCCc2ccccc21)/C(=C/c1cccc(C(F)(F)F)c1)NC(=O)c1ccc(Cl)cc1Cl (stereo not shown) | 90% |

| Compound | inhibition at 6 µg/mL |
| --- | --- |
| O=C(NCc1cccc2ccccc12)/C(=C/c1ccc(-c2ccccc2)cc1)NC(=O)c1ccc(Cl)cc1Cl | 90% |
| Cc1ccc(C(=O)N/C(=C\c2ccccc2Cl)C(=O)NCCCN2CCOCC2)cc1 | 95% |
| O=C(NCc1cccc2ccccc12)/C(=C/c1ccc(F)cc1F)NC(=O)c1ccc2ccccc2c1 | 93% |
| O=C(NC1CCCc2ccccc21)/C(=C/c1ccc(C(F)(F)F)cc1)NC(=O)c1ccc2ccccc2c1 (stereo not shown) | 95% |
| O=C(NCc1ccco1)/C(=C/c1cccc(C(F)(F)F)c1)NC(=O)c1ccc2ccccc2c1 | 93% |
| O=C(NCc1ccccc1)/C(=C/c1ccc(-c2ccccc2)cc1)NC(=O)c1ccc(Cl)cc1Cl | 94% |
| O=C(Nc1cccnc1)/C(=C/c1ccc(Cl)cc1Cl)NC(=O)c1ccc2ccccc2c1 | 91% |
| O=C(NCc1cccc2ccccc12)/C(=C/c1cnc2ccccc2c1)NC(=O)c1ccc2ccccc2c1 | 96% |
| Cc1ccc(CCNC(=O)/C(=C/c2cccc(Oc3ccccc3)c2)NC(=O)c2ccc(Cl)cc2Cl)cc1 | 95% |
| O=C(NC1CCCc2ccccc21)/C(=C/c1ccc(C(F)(F)F)cc1)NC(=O)c1ccc(C(F)(F)F)cc1 (stereo not shown) | 94% |
| O=C(NC(c1ccccc1)c1ccccc1)/C(=C/c1cccc(Oc2ccccc2)c1)NC(=O)c1ccc(C(F)(F)F)cc1 | 94% |
| O=C(Nc1cccnc1)/C(=C/c1ccccc1F)NC(=O)c1ccccc1 [phenyl / 2-fluorophenyl / 3-pyridinyl] | 91% |
| O=C(NCC(c1ccccc1)c1ccccc1)/C(=C/c1ccc(F)cc1)NC(=O)c1ccc2ccccc2c1 | 90% |
| O=C(NC(c1ccccc1)c1ccccc1)/C(=C/c1cccc(C(F)(F)F)c1)NC(=O)c1ccc2ccccc2c1 | 96% |
| O=C(NC(c1ccccc1)c1ccccc1)/C(=C/c1cccc(C(F)(F)F)c1)NC(=O)c1ccc(Cl)cc1Cl | 96% |
| O=C(NC(c1ccccc1)c1ccccc1)/C(=C/c1ccc(OC(F)(F)F)cc1)NC(=O)c1ccc2ccccc2c1 | 96% |
| COc1cccc(/C=C(\NC(=O)c2ccc3ccccc3c2)C(=O)NCCc2ccccc2)c1 [2-naphthyl / m-anisyl / phenethyl] | 91% |
| O=C(N/C(=C\c1ccc(C(F)(F)F)cc1)C(=O)N1CCN(c2ccccc2)CC1)c1ccc(C(F)(F)F)cc1 | 91% |
| Cc1ccc(CCNC(=O)/C(=C/c2ccc(C(F)(F)F)cc2)NC(=O)c2ccc(C(F)(F)F)cc2)cc1 | 95% |
| O=C(NC1CCc2ccccc21)/C(=C/c1ccc(-c2ccccc2)cc1)NC(=O)c1ccc(Cl)cc1Cl (stereo not shown) | 90% |
| O=C(NCC(c1ccccc1)c1ccccc1)/C(=C/c1ccc(C(F)(F)F)cc1)NC(=O)c1ccc2ccccc2c1 | 95% |
| O=C(N/C(=C\c1cccc(Oc2ccccc2)c1)C(=O)N1CCN(c2ccccc2)CC1)c1ccc(C(F)(F)F)cc1 | 90% |
| O=C(NC1CCCc2ccccc21)/C(=C/c1cccc(C(F)(F)F)c1)NC(=O)c1ccc2ccccc2c1 (stereo not shown) | 97% |
| Cc1ccc(C(=O)N/C(=C\c2ccccc2Cl)C(=O)NCc2cccc3ccccc23)cc1 | 90% |
| O=C(N/C(=C\c1cccc(C(F)(F)F)c1)C(=O)N1CCC(Cc2ccccc2)CC1)c1ccc2ccccc2c1 | 95% |

same assay, conditions: read-out: % inh, array assayed at 6 ug/mL, non-specific competitor RNA

| Compound | inhibition at 6 µg/mL |
| --- | --- |
| CC(CCc1ccccc1)NC(=O)/C(=C/c1ccc(C(F)(F)F)cc1)NC(=O)c1ccc2ccccc2c1 (stereo not shown) | 96% |
| O=C(NC(c1ccccc1)c1ccccc1)/C(=C/c1ccc(C(F)(F)F)cc1)NC(=O)c1ccc2ccccc2c1 | 96% |
| O=C(Nc1cccnc1)/C(=C/c1cc(F)cc(F)c1)NC(=O)c1ccc(Cl)cc1Cl | 91% |
